Measured values: US20080195322A1, “Quantification of the Effects of Perturbations on Biological Samples” (The Board of Regents of the University of Texas System, priority 2007, published 2008)

Tested on: HeLa cells
Assay: High-throughput image-based multivariate phenotypic profiling (d-profiles) of the 100-compound compendium by fluorescence microscopy
Type: cell-based, human
Conditions: for compound closest to first d-profile / compound closest to second d-profile: compounds with multiple d-profiles
Experimental: To illustrate the performance of the present multivariate approach, the disclosed methods were applied to a compendium of fluorescence microscopy images in which HeLa cells were treated with 100 compounds, dissolved in dimethyl sulfoxide (DMSO), over 13 threefold titrations as shown in FIGS. 5A and 5B. The compounds represented approximately 20 categories of activities as shown in the table of FIG. 6, selected to cover mechanisms of toxicity, signaling pathways, and therapeutic targets in cancer and other diseases. Compound effects were assayed in duplicate on 384-well plates, using four sets of multiplexed molecular markers (DNA-SC35-anillin; DNA-p53-cFos; DNA-p38-pERK; DNA-mirotubule-actin). On average, 2413±852 (mean±standard deviation) cells were captured per well, from 103,580 images per marker set, to yield a total of ˜37 million individual identified cells. Cells treated with DMSO alone were used as controls.
Although most of these features were derived from the measurements of individual markers, some features measured information from more than one marker (such as the spatial correlation between the intensities of two different markers).
Due to biological and experimental variability, the significance thresholds of classification accuracy at p=0.05 estimated on every plate were much higher than 50% (FIGS. 8A-D, lower panels, dashed lines), and occasionally could reach as high as 90%. Therefore, well-to-well variability, even within the control population, could be high and should not be ignored.
To simulate a drug screen for compounds of similar target to a known compound, a d-profile was selected to be the reference profile, while all other d-profiles from the compendium were used as blinded test profiles. Similarity scores between the reference profile and all other test profiles were computed and ranked. The test profiles that were most similar to the reference profile were selected as “drug candidates.”
For each reference profile, the performance in identifying test profiles was estimated with similar a target on each marker set by using prior target annotations as the “gold standard.” […] was used as the performance evaluation criterion (Methods). “On-target” effects were defined as d-profiles whose AUC values were significant (p<0.05), and all other d-profiles were defined as “off-target.” 73%, 40%, 67%, and 56% of the compounds with more than one d-profile and at least one on-target d-profile had at least one off-target d-profile on the DNA-SC35-anillin, DNA-p53-cFos, DNA-p38-pERK and DNA-MT-actin marker sets respectively. […] Thus, the present method can identify dose-dependent secondary or tertiary responses that were very different from the primary responses.
The compound category of a novel d-profile may be inferred by comparison to a collection of previously categorized reference d-profiles. […] Although all of these compounds are histone deacetylase inhibitors, oxamflatin, trichostatin, and scriptaid are hydroxamic acids having very different chemical structures than apicidin, a cyclic tetrapeptide. […] For a d-profile, an accurate prediction was made when its most similar d-profile was annotated to the same target category.

[1] = drug screening simulation against prior target annotations

## CC[C@@]1(O)C(=O)OCc2c1cc1n(c2=O)Cc2cc3ccccc3nc2-1 [Camptothecin]
Category prediction
  compound closest to first d-profile: closest to another topoisomerase inhibitor, etoposide
  compound closest to second d-profile: closest to a CDK inhibitor, alsterpullone
[1]
  off-target effects (d-profiles whose AUC not significant): one off-target effect
  on-target effects (d-profiles whose AUC values were significant, p<0.05): one on-target effect

## COc1cccc2c1C(=O)c1c(O)c3c(c(O)c1C2=O)C[C@@](O)(C(=O)CO)C[C@@H]3O[C@H]1C[C@H](N)[C@H](O)[C@H](C)O1 [doxorubixin]
In each of the four marker sets
  number of features needed to detect compound effects after recursive feature removal: only a single feature

## NC(=O)NO [hydroxy urea-2, hydroxy urea]
DNA-p53-cFos marker set
  most similar d-profiles (category prediction): most similar to aphidicolin and methotrexate

## COC(=O)Nc1nc2ccc(C(=O)c3cccs3)cc2[nH]1 [nocadazale, Nocodazole]
Category prediction
  d-profile similarity to the group of microtubule stabilizing compounds (taxol second d-profile, epothilone B, griseofulvin): further away

## CC(=O)O[C@H]1C(=O)[C@@]2(C)[C@H]([C@H](OC(=O)c3ccccc3)[C@]3(O)C[C@H](OC(=O)[C@H](O)[C@@H](NC(=O)c4ccccc4)c4ccccc4)C(C)=C1C3(C)C)[C@]1(OC(C)=O)CO[C@@H]1C[C@@H]2O [taxol, Taxol]
Across all four marker sets, 13 threefold titrations
  number of d-profiles: 2
Category prediction
  compound closest to first d-profile: closest to sulindac sulfide
  compound closest to second d-profile: closest to epothilone B and griseofulvin

## Oxamflatin
DNA-p38-pERK marker set
  most similar d-profiles (category prediction): most similar to trichostatin, scriptaid, and apicidin
